Assay results taken from patent US12091404B2 (Gilead Sciences, Inc., priority 2021, dated 2024).

Experiments:
GLP-1R [1] = target: T1, GLP-1R (Homo sapiens, UniProt P43220); experiment: GLP-1R Activation - cAMP Assay 2; type: cell-based
Description: GLP-1R Activation—cAMP Assay 2 GLP-1R activation by small molecule agonists is quantified by measuring cAMP increase in CHO cells stably expressing GLP-1R (MultiSpan product #C1267-1a). 50 nL of agonists are pre-spotted in a 10-point dose response onto 384-well plate (Corning product #CL3826) using the Labcyte Echo System. […] The cells are then incubated for 30 minutes at 37° C., 5% CO2. cAMP concentration increase is then detected using Cisbio's cAMP Gs Dynamic Kit (product #62AM4PEC) according to the manufacturer's protocol. The response is plotted against the log of the agonist concentration and fitted to a sigmoidal equation to determine the EC50.

GLP-1R [2] = target: T1, GLP-1R; experiment: GLP-1R Activation - cAMP Assay 1; type: cell-based; settings: cAMP increase in CHO cells stably expressing GLP-1R; 10-point dose response, 30 minutes incubation at 37° C.
Description: GLP-1R Activation—cAMP Assay 1
GLP-1R activation by a compound of the present disclosure was quantified by measuring cAMP increase in CHO cells stably expressing GLP-1R (MultiSpan product #C1267-1a). The cells were harvested and plated in growth medium (DMEM/F-12 (Corning product #10-090-CV) supplemented with 10% FBS (HyClone product #SH30071-03), penicillin/streptomycin (Corning product #30-002CI) and 10 µg/ml puromycin (Gibco product #A11138-03)) at 1,000 cells/well in a 384-well plate (Greiner product #781080). The cells were then incubated overnight at 37° C., 5% CO2. The next day, the medium was removed and the cells were washed with DPBS (Corning product #21-031-CM) before adding the assay medium (HBSS, Corning product #21-023-CV) with 20 mM Hepes (Gibco product #15630-080) and 0. 1% BSA (Rockland Immunochemicals product #BSA-1000)). Following the medium change, the cells were incubated for 1 hour at 37° C., 5% CO2. The tested GLP-1 compound was added to the cells in a 10-point dose response followed by a 30 minutes incubation at 37° C., 5% CO2. cAMP concentration increase was then detected using Cisbio's cAMP Gs Dynamic Kit (product #62AM4PEC) according to the manufacturer's protocol. The response was plotted against the log of the agonist concentration and fitted to a sigmoidal equation to determine the EC50.

[3] = cAMP increase in CHO cells stably expressing GLP-1R, pre-spotted agonists, assay buffer or 100% Human Plasma (not stated which), 30 minutes at 37° C., read-out: GLP-1R Activation- Assay 2 EC50 (nm)

T1 sequence (P43220 24-463): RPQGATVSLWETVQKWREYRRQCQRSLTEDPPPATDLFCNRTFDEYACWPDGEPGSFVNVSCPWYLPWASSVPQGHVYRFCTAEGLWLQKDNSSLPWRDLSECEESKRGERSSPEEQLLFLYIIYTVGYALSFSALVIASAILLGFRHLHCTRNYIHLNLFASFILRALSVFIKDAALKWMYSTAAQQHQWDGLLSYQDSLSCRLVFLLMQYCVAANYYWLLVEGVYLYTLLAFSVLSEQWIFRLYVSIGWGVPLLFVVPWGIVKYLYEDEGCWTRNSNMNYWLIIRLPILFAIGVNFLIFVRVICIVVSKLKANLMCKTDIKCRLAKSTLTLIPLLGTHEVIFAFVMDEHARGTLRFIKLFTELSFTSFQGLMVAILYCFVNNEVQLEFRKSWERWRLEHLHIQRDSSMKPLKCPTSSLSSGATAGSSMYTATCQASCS

| SMILES | EC50 (GLP-1R [1]; [3]) [nM] | EC50 (GLP-1R [2]) [nM] | other results |
| --- | --- | --- | --- |
| NC(=O)c1ccc(COc2cccc(C3CCN(Cc4nc5ccc(C(=O)O)cc5n4C[C@@H]4CCO4)CC3)n2)s1 [Example 7, (S)-2-((4-(6-((5-carbamoylthiophen-2-yl)methoxy)pyridin-2-yl)piperidin-1-yl)methyl)-1-(oxetan-2-ylmethyl)-1H-benzo[d]imidazole-6-carboxylic acid] | 36.5 |  |  |
| COCCn1c(CN2CCC(c3cccc(OCc4ccc(C#N)s4)n3)CC2)nc2ccc(C(=O)O)cc21 [Example 2, 2-((4-(6-((5-cyanothiophen-2-yl)methoxy)pyridin-2-yl)piperidin-1-yl)methyl)-1-(2-methoxyethyl)-1H-benzo[d]imidazole-6-carboxylic acid] |  | 47.3 |  |
| COCCn1c(CN2CCC(c3cccc(OCc4cnc(Cl)s4)n3)CC2)nc2ccc(C(=O)O)cc21 [Example 3, 2-[[4-[6-[(2-chlorothiazol-5-yl)methoxy]-2-pyridyl]-1-piperidyl]methyl]-3-(2-methoxyethyl)benzimidazole-5-carboxylic acid] |  | 307 |  |
| COCCn1c(CN2CCC(c3cccc(OCc4csc5cc(Cl)ccc45)n3)CC2)nc2ccc(C(=O)O)cc21 [Example 11, 2-((4-(6-((6-chlorobenzo[b]thiophen-3-yl)methoxy)pyridin-2-yl)piperidin-1-yl)methyl)-1-(2-methoxyethyl)-1H-benzo[d]imidazole-6-carboxylic acid] |  | 156 |  |
| O=C(O)c1ccc2nc(CN3CCC(c4cccc(OCc5ccn(C(F)F)n5)n4)CC3)n(C[C@@H]3CCO3)c2c1 [Example 8, (S)-2-((4-(6-((1-(difluoromethyl)-1H-pyrazol-3-yl)methoxy)pyridin-2-yl)piperidin-1-yl)methyl)-1-(oxetan-2-ylmethyl)-1H-benzo[d]imidazole-6-carboxylic acid] | 21.5 |  |  |
| COCCn1c(CN2CCC(c3cccc(OCc4sc(C#N)cc4F)n3)CC2)nc2ccc(C(=O)O)cc21 [Example 1, 2-((4-(6-((5-cyano-3-fluorothiophen-2-yl)methoxy)pyridin-2-yl)piperidin-1-yl)methyl)-1-(2-methoxyethyl)-1H-benzo[d]imidazole-6-carboxylic acid] |  | 166 |  |
| COCCn1c(CN2CCC(c3cccc(OCc4nnc(Cl)s4)n3)CC2)nc2ccc(C(=O)O)cc21 [Example 4] |  | 294 |  |
| COCCn1c(CN2CCC(c3cccc(OCc4ccsc4)n3)CC2)nc2ccc(C(=O)O)cc21 [Example 12, 1-(2-methoxyethyl)-2-((4-(6-(thiophen-3-ylmethoxy)pyridin-2-yl)piperidin-1-yl)methyl)-1H-benzo[d]imidazole-6-carboxylic acid] |  | 831 |  |
| Cn1cc(C#Cc2ccc(COc3cccc(C4CCN(Cc5nc6ccc(C(=O)O)cc6n5C[C@@H]5CCO5)CC4)n3)s2)cn1 [Example 9, 2-[[4-[6-[[5-[2-(1-methylpyrazol-4-yl)ethynyl]-2-thienyl]methoxy]-2-pyridyl]-1-piperidyl]methyl]-3-[[(2S)-oxetan-2-yl]methyl]benzimidazole-5-carboxylic acid] | 3.3 |  |  |
| O=C(O)c1ccc2nc(Cc3cc(F)c(-c4cccc(OCc5cc(C(F)(F)F)cs5)n4)cc3F)n(C[C@@H]3CCO3)c2c1 [Example 10, 2-[[2,5-difluoro-4-[6-[[4-(trifluoromethyl)-2-thienyl]methoxy]-2-pyridyl]phenyl]methyl]-3-[[(2S)-oxetan-2-yl]methyl]benzimidazole-5-carboxylic acid] | 0.4 |  |  |
| N#Cc1ccc(COc2cccc(C3CCN(Cc4nc5ccc(C(=O)O)cc5n4C[C@@H]4CCO4)CC3)n2)s1 [Example 6, (S)-2-((4-(6-((5-cyanothiophen-2-yl)methoxy)pyridin-2-yl)piperidin-1-yl)methyl)-1-(oxetan-2-ylmethyl)-1H-benzo[d]imidazole-6-carboxylic acid] |  |  | EC50 (GLP-1R [1]): 0.9 nM |
| Cn1ccc(COc2cccc(C3CCN(Cc4nc5ccc(C(=O)O)cc5n4C[C@@H]4CCO4)CC3)n2)n1 [Example 5, (S)-2-((4-(6-((1-methyl-1H-pyrazol-3-yl)methoxy)pyridin-2-yl)piperidin-1-yl)methyl)-1-(oxetan-2-ylmethyl)-1H-benzo[d]imidazole-6-carboxylic acid] | > 100 |  |  |

Second part, led by results:

| EC50 (GLP-1R [1]; [3]) [nM] | EC50 (GLP-1R [2]) [nM] | SMILES | other results |
| --- | --- | --- | --- |
| 24.1 |  | N#Cc1cnc(COc2cccc(C3CCN(Cc4nc5ccc(C(=O)O)cc5n4C[C@@H]4CCO4)CC3)n2)s1 [Example 17, (S)-2-((4-(6-((5-cyanothiazol-2-yl)methoxy)pyridin-2-yl)piperidin-1-yl)methyl)-1-(oxetan-2-ylmethyl)-1H-benzo[d]imidazole-6-carboxylic acid] |  |
| 5.2 |  | O=C(O)c1ccc2nc(CN3CCC(c4cccc(OCc5nc(C(F)(F)F)cs5)n4)CC3)n(C[C@@H]3CCO3)c2c1 [Example 15, (S)-1-(oxetan-2-ylmethyl)-2-((4-(6-((4-(trifluoromethyl)thiazol-2-yl)methoxy)pyridin-2-yl)piperidin-1-yl)methyl)-1H-benzo[d]imidazole-6-carboxylic acid] |  |
| 1.8 |  | O=C(O)c1ccc2nc(CN3CCC(c4cccc(OCc5ncc(C(F)(F)F)s5)n4)CC3)n(C[C@@H]3CCO3)c2c1 [Example 14, (S)-1-(oxetan-2-ylmethyl)-2-((4-(6-((5-(trifluoromethyl)thiazol-2-yl)methoxy)pyridin-2-yl)piperidin-1-yl)methyl)-1H-benzo[d]imidazole-6-carboxylic acid] |  |
|  | 4350 | COCCn1c(CN2CCC(c3cccc(OCc4cnn(C)n4)n3)CC2)nc2ccc(C(=O)O)cc21 [Example 20, 1-(2-methoxyethyl)-2-((4-(6-((2-methyl-2H-1,2,3-triazol-4-yl)methoxy)pyridin-2-yl)piperidin-1-yl)methyl)-1H-benzo[d]imidazole-6-carboxylic acid] |  |
|  | 5900 | COCCn1c(CN2CCC(c3cccc(OCc4cscn4)n3)CC2)nc2ccc(C(=O)O)cc21 [Example 19, 1-(2-methoxyethyl)-2-((4-(6-(thiazol-4-ylmethoxy)pyridin-2-yl)piperidin-1-yl)methyl)-1H-benzo[d]imidazole-6-carboxylic acid] |  |
| 4.1 |  | O=C(O)c1ccc2nc(CN3CCC(c4cccc(OCc5cc(C(F)(F)F)cs5)n4)CC3)n(C[C@@H]3CCO3)c2c1 [Example 16, (S)-1-(oxetan-2-ylmethyl)-2-((4-(6-((4-(trifluoromethyl)thiophen-2-yl)methoxy)pyridin-2-yl)piperidin-1-yl)methyl)-1H-benzo[d]imidazole-6-carboxylic acid] |  |
|  | 197 | COCCn1c(CN2CCC(c3cccc(OCc4csc5ccccc45)n3)CC2)nc2ccc(C(=O)O)cc21 [Example 13, 2-((4-(6-(benzo[b]thiophen-3-ylmethoxy)pyridin-2-yl)piperidin-1-yl)methyl)-1-(2-methoxyethyl)-1H-benzo] |  |
|  | 869 | COCCn1c(CN2CCC(c3cccc(OCc4nccs4)n3)CC2)nc2ccc(C(=O)O)cc21 [Example 18, 1-(2-methoxyethyl)-2-((4-(6-(thiazol-2-ylmethoxy)pyridin-2-yl)piperidin-1-yl)methyl)-1H-benzo[d]imidazole-6-carboxylic acid] |  |
